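Interpolation was linear, between the two tested concentrations surrounding the appropriate level; five concentrations were tested over 48 hours in 96-well plates. GI50 = concentration required for 50% inhibition of growth.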 Active and inactive are the calls of the source. Rule as the data show it: active = GI50 up to about 1.1 µM and inactive = higher.
What was measured:
Experiment in all cases: inhibition of tumour cell growth, NCI panel, 48 h
786-0 = system: 786-0
A498 = system: A498
A549 = system: A549
ACHN = system: ACHN
BT-549 = system: BT-549
CAKI-1 = system: CAKI-1
CCRF-CEM = system: CCRF-CEM
COLO 205 = system: COLO 205
DU-145 = system: DU-145
EKVX = system: EKVX
HCC 2998 = system: HCC 2998
HCT-116 = system: HCT-116
HCT-15 = system: HCT-15
HL-60 = system: HL-60
HOP-62 = system: HOP-62
HOP-92 = system: HOP-92
HT-29 = system: HT-29
Hs-578T = system: Hs-578T
IGROV-1 = system: IGROV-1
K562 = system: K562
KM12 = system: KM12
LOX IMVI = system: LOX IMVI
M14 = system: M14
MCF7 = system: MCF7
MDA-MB-231 = system: MDA-MB-231
MDA-MB-435 = system: MDA-MB-435
MDA-N = system: MDA-N
MOLT-4 = system: MOLT-4
Malme-3M = system: Malme-3M
NCI-H226 = system: NCI-H226
NCI-H23 = system: NCI-H23
NCI-H460 = system: NCI-H460
NCI-H522 = system: NCI-H522
NCI/ADR-RES = system: NCI/ADR-RES
OVCAR-3 = system: OVCAR-3
OVCAR-4 = system: OVCAR-4
OVCAR-5 = system: OVCAR-5
OVCAR-8 = system: OVCAR-8
PC-3 = system: PC-3
RPMI-8226 = system: RPMI-8226
RXF 393 = system: RXF 393
SF-268 = system: SF-268
SF-295 = system: SF-295
SF-539 = system: SF-539
SK-MEL-28 = system: SK-MEL-28
SK-MEL-2 = system: SK-MEL-2
SK-MEL-5 = system: SK-MEL-5
SK-OV-3 = system: SK-OV-3
SN12C = system: SN12C
SNB-19 = system: SNB-19
SNB-75 = system: SNB-75
SR = system: SR
SW-620 = system: SW-620
T47D = system: T47D
TK-10 = system: TK-10
U-251 = system: U-251
UACC-257 = system: UACC-257
UACC-62 = system: UACC-62
UO-31 = system: UO-31

Structure (SMILES): COC(=O)C1Cc2c(C)cccc2C1=O (configuration not stated)
- GI50 (786-0): > 100 µM (inactive)
- GI50 (A498): > 100 µM (inactive)
- GI50 (A549): > 100 µM (inactive)
- GI50 (ACHN): > 100 µM (inactive)
- GI50 (BT-549): > 100 µM (inactive)
- GI50 (CAKI-1): > 100 µM (inactive)
- GI50 (CCRF-CEM): 41.3 µM (inactive)
- GI50 (COLO 205): > 100 µM (inactive)
- GI50 (DU-145): > 100 µM (inactive)
- GI50 (EKVX): > 100 µM (inactive)
- GI50 (HCC 2998): > 100 µM (inactive)
- GI50 (HCT-116): > 100 µM (inactive)
- GI50 (HCT-15): > 100 µM
- GI50 (HL-60): 29.4 µM (inactive)
- GI50 (HOP-62): > 100 µM (inactive)
- GI50 (HOP-92): > 100 µM (inactive)
- GI50 (HT-29): > 100 µM (inactive)
- GI50 (Hs-578T): > 100 µM (inactive)
- GI50 (IGROV-1): > 100 µM (inactive)
- GI50 (K562): 66.7 µM (inactive)
- GI50 (KM12): > 100 µM (inactive)
- GI50 (LOX IMVI): 88.9 µM (inactive)
- GI50 (M14): > 100 µM (inactive)
- GI50 (MCF7): > 100 µM (inactive)
- GI50 (MDA-MB-231): > 100 µM (inactive)
- GI50 (MDA-MB-435): > 100 µM (inactive)
- GI50 (MDA-N): > 100 µM (inactive)
- GI50 (MOLT-4): > 100 µM (inactive)
- GI50 (Malme-3M): > 100 µM (inactive)
- GI50 (NCI-H226): > 100 µM (inactive)
- GI50 (NCI-H23): > 100 µM (inactive)
- GI50 (NCI-H460): > 100 µM (inactive)
- GI50 (NCI-H522): > 100 µM (inactive)
- GI50 (NCI/ADR-RES): > 100 µM (inactive)
- GI50 (OVCAR-3): > 100 µM (inactive)
- GI50 (OVCAR-4): > 100 µM (inactive)
- GI50 (OVCAR-5): > 100 µM (inactive)
- GI50 (OVCAR-8): > 100 µM (inactive)
- GI50 (PC-3): > 100 µM (inactive)
- GI50 (RPMI-8226): > 100 µM (inactive)
- GI50 (RXF 393): > 100 µM (inactive)
- GI50 (SF-268): > 100 µM (inactive)
- GI50 (SF-295): > 100 µM (inactive)
- GI50 (SF-539): > 100 µM (inactive)
- GI50 (SK-MEL-28): > 100 µM (inactive)
- GI50 (SK-MEL-2): > 100 µM (inactive)
- GI50 (SK-MEL-5): > 100 µM (inactive)
- GI50 (SK-OV-3): > 100 µM (inactive)
- GI50 (SN12C): > 100 µM (inactive)
- GI50 (SNB-19): > 100 µM (inactive)
- GI50 (SNB-75): > 100 µM (inactive)
- GI50 (SR): 50.8 µM (inactive)
- GI50 (SW-620): > 100 µM (inactive)
- GI50 (T47D): > 100 µM (inactive)
- GI50 (TK-10): > 100 µM (inactive)
- GI50 (U-251): > 100 µM (inactive)
- GI50 (UACC-257): > 100 µM (inactive)
- GI50 (UACC-62): > 100 µM (inactive)
- GI50 (UO-31): > 100 µM (inactive)

Structure (SMILES): O=C1C[C@H](Sc2ccccc2)C2(OCCO2)[C@@H](Sc2ccccc2)C1
- GI50 (786-0): 2.82 µM (inactive)
- GI50 (A498): 15.1 µM (inactive)
- GI50 (A549): 1.87 µM (inactive)
- GI50 (ACHN): 1.77 µM (inactive)
- GI50 (BT-549): 1.97 µM (inactive)
- GI50 (CAKI-1): 3.1 µM (inactive)
- GI50 (CCRF-CEM): 0.282 µM (active)
- GI50 (COLO 205): 4.28 µM (inactive)
- GI50 (DU-145): 3.19 µM (inactive)
- GI50 (EKVX): 4.52 µM (inactive)
- GI50 (HCC 2998): 2.58 µM (inactive)
- GI50 (HCT-116): 1.6 µM (inactive)
- GI50 (HCT-15): 1.68 µM
- GI50 (HL-60): 0.272 µM (active)
- GI50 (HOP-62): 3.27 µM (inactive)
- GI50 (HOP-92): 1.9 µM (inactive)
- GI50 (HT-29): 1.64 µM (inactive)
- GI50 (Hs-578T): 1.77 µM (inactive)
- GI50 (IGROV-1): 1.5 µM (inactive)
- GI50 (K562): 0.351 µM (active)
- GI50 (KM12): 1.79 µM (inactive)
- GI50 (LOX IMVI): 0.7 µM (active)
- GI50 (M14): 1.78 µM (inactive)
- GI50 (MCF7): 1.17 µM (inactive)
- GI50 (MDA-MB-231): 1.64 µM (inactive)
- GI50 (MDA-MB-435): 2.25 µM (inactive)
- GI50 (MDA-N): 2.2 µM (inactive)
- GI50 (MOLT-4): 0.26 µM (active)
- GI50 (Malme-3M): 1.81 µM (inactive)
- GI50 (NCI-H226): 2.31 µM (inactive)
- GI50 (NCI-H23): 2.09 µM (inactive)
- GI50 (NCI-H460): 5.19 µM (inactive)
- GI50 (NCI-H522): 0.316 µM (active)
- GI50 (NCI/ADR-RES): 1.88 µM (inactive)
- GI50 (OVCAR-3): 2.16 µM (inactive)
- GI50 (OVCAR-4): 5.07 µM (inactive)
- GI50 (OVCAR-5): 3.35 µM (inactive)
- GI50 (OVCAR-8): 1.73 µM (inactive)
- GI50 (PC-3): 1.93 µM (inactive)
- GI50 (RPMI-8226): 0.743 µM (active)
- GI50 (RXF 393): 1 µM (active)
- GI50 (SF-268): 1.87 µM (inactive)
- GI50 (SF-295): 4.33 µM (inactive)
- GI50 (SF-539): 0.998 µM (active)
- GI50 (SK-MEL-28): 2.38 µM (inactive)
- GI50 (SK-MEL-2): 10.2 µM (inactive)
- GI50 (SK-MEL-5): 1.64 µM (inactive)
- GI50 (SK-OV-3): 11.5 µM (inactive)
- GI50 (SN12C): 2.7 µM (inactive)
- GI50 (SNB-19): 11 µM (inactive)
- GI50 (SNB-75): 11.9 µM (inactive)
- GI50 (SR): 0.322 µM (active)
- GI50 (SW-620): 1.24 µM (inactive)
- GI50 (T47D): 5.13 µM (inactive)
- GI50 (TK-10): 1.95 µM (inactive)
- GI50 (U-251): 1.78 µM (inactive)
- GI50 (UACC-257): 1.8 µM (inactive)
- GI50 (UACC-62): 2.01 µM (inactive)
- GI50 (UO-31): 1.23 µM (inactive)

Structure (SMILES): CC(C)=CCC[C@@H](C)[C@H]1CC[C@@]2(C)[C@@H]3CC[C@H]4C(C)(C)[C@@H](O)CC[C@@]45C[C@@]35CC[C@]12C [CYCLOARTENOL]
- GI50 (786-0): 43.8 µM (inactive)
- GI50 (A498): 41.2 µM (inactive)
- GI50 (A549): 21.6 µM (inactive)
- GI50 (ACHN): 31.5 µM (inactive)
- GI50 (BT-549): 21.1 µM (inactive)
- GI50 (CAKI-1): 59.6 µM (inactive)
- GI50 (CCRF-CEM): 23 µM (inactive)
- GI50 (COLO 205): > 60 µM (inactive)
- GI50 (DU-145): 59.7 µM (inactive)
- GI50 (EKVX): 37.2 µM (inactive)
- GI50 (HCC 2998): > 31.6 µM (inactive)
- GI50 (HCT-116): 23.5 µM (inactive)
- GI50 (HCT-15): > 100 µM
- GI50 (HL-60): 33.7 µM (inactive)
- GI50 (HOP-62): 24.9 µM (inactive)
- GI50 (HOP-92): 17.7 µM (inactive)
- GI50 (HT-29): > 100 µM (inactive)
- GI50 (Hs-578T): 33.4 µM (inactive)
- GI50 (IGROV-1): 16.1 µM (inactive)
- GI50 (K562): 26 µM (inactive)
- GI50 (KM12): > 56.8 µM (inactive)
- GI50 (LOX IMVI): 21 µM (inactive)
- GI50 (M14): 41 µM (inactive)
- GI50 (MCF7): 31.8 µM (inactive)
- GI50 (MDA-MB-231): > 44.9 µM (inactive)
- GI50 (MDA-MB-435): > 41.9 µM (inactive)
- GI50 (MDA-N): > 72.9 µM (inactive)
- GI50 (MOLT-4): > 51.9 µM (inactive)
- GI50 (Malme-3M): > 100 µM (inactive)
- GI50 (NCI-H226): 26.5 µM (inactive)
- GI50 (NCI-H23): 22.7 µM (inactive)
- GI50 (NCI-H460): 17.8 µM (inactive)
- GI50 (NCI-H522): 20.7 µM (inactive)
- GI50 (NCI/ADR-RES): 23.4 µM (inactive)
- GI50 (OVCAR-3): > 100 µM (inactive)
- GI50 (OVCAR-4): > 100 µM (inactive)
- GI50 (OVCAR-5): > 54.2 µM (inactive)
- GI50 (OVCAR-8): 16.9 µM (inactive)
- GI50 (PC-3): > 71.8 µM (inactive)
- GI50 (RPMI-8226): 45 µM (inactive)
- GI50 (RXF 393): 18 µM (inactive)
- GI50 (SF-268): 27.7 µM (inactive)
- GI50 (SF-295): > 48.2 µM (inactive)
- GI50 (SF-539): > 49.7 µM (inactive)
- GI50 (SK-MEL-28): 39.4 µM (inactive)
- GI50 (SK-MEL-2): 27.2 µM (inactive)
- GI50 (SK-MEL-5): > 44.4 µM (inactive)
- GI50 (SK-OV-3): 53.5 µM (inactive)
- GI50 (SN12C): 20 µM (inactive)
- GI50 (SNB-19): 58.7 µM (inactive)
- GI50 (SNB-75): > 55.7 µM (inactive)
- GI50 (SR): 24.3 µM (inactive)
- GI50 (SW-620): 58.2 µM (inactive)
- GI50 (T47D): 51.4 µM (inactive)
- GI50 (TK-10): > 100 µM (inactive)
- GI50 (U-251): 15.5 µM (inactive)
- GI50 (UACC-257): > 100 µM (inactive)
- GI50 (UACC-62): 44.4 µM (inactive)
- GI50 (UO-31): > 40.7 µM (inactive)
